From ChEMBL document CHEMBL3886743, “Immune system modulators” (2016)

Molecular target: T1, Toll-like receptor 9 (Homo sapiens, UniProt Q9NR96)
T1 sequence (Q9NR96 whole entry): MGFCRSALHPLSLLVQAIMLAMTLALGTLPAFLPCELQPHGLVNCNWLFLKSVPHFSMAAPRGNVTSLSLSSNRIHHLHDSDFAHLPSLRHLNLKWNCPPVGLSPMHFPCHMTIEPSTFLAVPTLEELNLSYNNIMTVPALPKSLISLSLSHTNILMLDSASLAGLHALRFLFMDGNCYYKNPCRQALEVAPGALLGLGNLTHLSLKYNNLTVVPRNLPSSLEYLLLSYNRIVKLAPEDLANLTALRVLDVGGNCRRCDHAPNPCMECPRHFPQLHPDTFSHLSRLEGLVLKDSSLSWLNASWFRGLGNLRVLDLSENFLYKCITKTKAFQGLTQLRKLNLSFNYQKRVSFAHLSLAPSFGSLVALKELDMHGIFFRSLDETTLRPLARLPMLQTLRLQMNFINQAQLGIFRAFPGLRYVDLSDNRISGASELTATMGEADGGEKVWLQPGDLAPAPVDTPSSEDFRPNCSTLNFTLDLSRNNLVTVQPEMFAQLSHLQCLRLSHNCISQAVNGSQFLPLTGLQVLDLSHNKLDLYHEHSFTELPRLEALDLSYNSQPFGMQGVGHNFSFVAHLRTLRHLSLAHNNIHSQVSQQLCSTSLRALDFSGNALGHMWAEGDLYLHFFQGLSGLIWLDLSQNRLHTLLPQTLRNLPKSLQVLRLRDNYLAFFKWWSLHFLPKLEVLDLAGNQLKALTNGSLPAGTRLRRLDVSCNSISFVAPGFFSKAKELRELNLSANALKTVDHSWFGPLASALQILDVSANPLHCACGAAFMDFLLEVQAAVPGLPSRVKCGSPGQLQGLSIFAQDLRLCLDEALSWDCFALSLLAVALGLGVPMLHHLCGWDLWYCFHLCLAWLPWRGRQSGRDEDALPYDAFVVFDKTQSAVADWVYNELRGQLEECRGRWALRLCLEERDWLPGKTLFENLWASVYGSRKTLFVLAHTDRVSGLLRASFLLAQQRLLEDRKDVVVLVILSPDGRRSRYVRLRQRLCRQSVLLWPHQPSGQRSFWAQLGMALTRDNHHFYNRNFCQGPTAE
Assay: TLR9 Antagonism Assay: Day 1: A cell suspension of HEK-Blue™-hTLR9 cells at ~450,000 cells per ml in test medium which contained 5% (v/v) heat inactivated FBS was prepared. 180 μl of cell suspension (~80,000 cells) was added per well of a flat-bottom 96-well plate and place in an incubator at 37° C. for overnight. Day 2: Test compounds were serially diluted in test medium, generally starting at 10 μM, and diluting by 3 fold in a 96 well master plate. 20 μl of diluted test compound was transferred using a 12 channel multi-channel pipet to the cell plate and incubated at 37° C. for 1 hour. Then 20 μl of an hTLR9 agonist (such as ODN 2006, 1 μM) was added to each well and the plate incubated at 37° C. overnight. Day 3: Invivogen's QUANTI-Blue™ was prepared following the manufacturer's instructions. […] of resuspended QUANTI-Blue™ was added per well of a flat bottom 96-well plate. 20 μl per well of induced HEK-Blue™-hTLR9 cells supernatant was then added to the plate and the plate was incubated at 37° C. for 1-3 h. SEAP levels were determined using a spectrophotometer at 620 nm.

SMILES	IC50
CN1CCN(CCNc2nc(-c3ccccc3)nc3c2ncn3CCN2CCOCC2)CC1	3.29 µM
CCCCSc1nc(NCCN2CCOCC2)c2nc(O)n(CCN3CCOCC3)c2n1	11.1 µM
CN1CCN(c2ccc(-c3nc(NCCN4CCOCC4)c4nc[nH]c4n3)cc2)CC1	0.072 µM
CCN1CCN(c2ccc(-c3nc(NCCN4CCOCC4)c4nc[nH]c4n3)cc2)CC1	0.142 µM
c1ccc(-c2nc(NCCN3CCOCC3)c3ncn(CCN4CCOCC4)c3n2)cc1	7.53 µM
Oc1nc2c(NCCN3CCOCC3)nc(-c3ccccc3)nc2n1CCN1CCOCC1	8.01 µM
CCOC(=O)Cn1cnc2c(NCCN3CCOCC3)nc(-c3ccc(N4CCN(C)CC4)cc3)nc21	5.2 µM
CN1CCN(CCNc2nc(-c3ccccc3)nc3c2ncn3CCN2CCN(C)CC2)CC1	0.604 µM
